Patent US20240101573A1, “MACROCYCLIC K-RAS G12C INHIBITOR, PREPARATION METHOD THEREFOR AND USE THEREOF” (Abbisko Therapeutics Co., Ltd., priority 2020, published 2024)

Assays:
H358 = assay: Anti-proliferation 2D CTG test (H358); format: cell-based; settings: H358 cells, 1500 cells/well, 5 days incubation with compound, CTG readout
Description: (§1) When the cell confluency was 80%, the cells were isolated with 0.25% trypsin. The isolated cells were resuspended in 5 mL of fresh cell culture medium and centrifuged to collect the cells. The number of cells were counted at the same time. Then, the cells were suspended in a culture medium at a moderate concentration. The cells were placed into a 96-well plate with 1500 cells/well for H358 and 500 cells/well for MIAPACA-2. The 96-well plate was placed in an incubator at 37° C. and incubated overnight.
(§2) 2) Day 1: processing of compound
(§3) A 2 mM stock solution was serially diluted at 10 points at a ratio of 1:3. 5× culture medium containing the compound was transferred to the corresponding wells of 96 wells. The final peak concentration of the compound was […], and the final concentration of DMSO was 0.5%. The 96-well plate was placed in the incubator at 37° C. and incubated for 5 days.
(§4) 3) Baseline reading. 4) Day 6: reading of signals
(§5) A detection reagent (CTG) was added at 50 μL/well, and the signals were read in an Envision instrument.
(§6) The percentage of inhibition ([…]) at each compound concentration was calculated based on the signals from the HPE and ZPE control wells contained in each assay plate and the fluorescence signals from individual compound wells. The inhibition rate in the ZPE control wells containing the enzyme and substrate was 0%, and the inhibition rate in the HPE control wells only containing the substrate was […]. By testing the compound in terms of numeric concentration and inhibition percentage, the compound concentration required for […] inhibition (IC50) was determined using a four-parameter logarithmic dose-response equation. The endpoint value (IC50) of the reference compound was evaluated in each experiment as a quality control measure. If the endpoint value was within three times the expected value, the experiment was considered acceptable.

MIA PaCa-2 = assay: Anti-proliferation 2D CTG test (MIA PaCa-2); format: cell-based; settings: MIAPACA-2 cells, 500 cells/well, 5 days incubation with compound, CTG readout
Description: as §1, §2, §3, §4, §5, §6

[1] = Homo sapiens, MIA PaCa-2, 120 h

IC50 (H358; Homo sapiens, NCI-H358, 120 h) [nM] | IC50 (MIA PaCa-2; [1]) [nM] | IC50 (H358) [nM] | IC50 (MIA PaCa-2) [nM] | SMILES
6 | 9 |  |  | C=CC(=O)N1CCN(c2nc(=O)n3c4nc(c(F)cc24)-c2c(F)cccc2OCC(OC(=O)C2CC2)C(OC(=O)C2CC2)c2ccnc(C(C)C)c2-3)[C@@H](C)C1 (stereo partly drawn) [Example 14, 2^4-((S)-4-acryloyl-2-methylpiperazin-1-yl)-2^6,3^6-difluoro-1^2-isopropyl-2^2-oxo-2^1,2^2-dihydro-4-oxa-2(1,7)-pyrido[2,3-d]pyrimidina-1(3,4)-pyridina-3(1,2)-benzocycloheptane-6,7-diyl dicyclopropanecarboxylate]
 |  | 3 | 6 | C=CC(=O)N1CCN(c2nc(=O)n3c4nc(c(F)cc24)-c2c(ccc(Cl)c2F)OCC(OCC)C(O)c2ccnc(C(C)C)c2-3)[C@@H](C)C1 (stereo partly drawn) [Example 75, (R)-2^4-((S)-4-acryloyl-2-methylpiperazin-1-yl)-3^5-chloro-6-ethoxy-2^6,3^6-difluoro-7-hydroxy-1^2-isopropyl-2^1,2^2-dihydro-4-oxa-2(1,7)-pyrido[2,3-d]pyrimidina-1(3,4)-pyridina-3(1,2)-benzocycloheptane-2^2-one]
 |  | 25 | 30 | C=CC(=O)N1CCN(c2nc(=O)n3c4nc(c(F)cc24)-c2c(F)cccc2OCC(=O)C(OC(C)=O)c2ccnc(C(C)C)c2-3)[C@@H](C)C1 (stereo partly drawn) [Example 20, (R)-2^4-((S)-4-acryloyl-2-methylpiperazin-1-yl)-2^6,3^6-difluoro-1^2-isopropyl-2^2,6-dioxo-2^1,2^2-dihydro-4-oxa-2(1,7)-pyrido[2,3-d]pyrimidina-(3,4)-pyridina-3(1,2)-benzocycloheptane-7-yl acetate]
 |  | 11 | 9 | C=CC(=O)N1CCN(c2nc(=O)n3c4nc(c(F)cc24)-c2c(F)cccc2OCC(O)C(OC(=O)C(N)C(C)C)c2ccnc(C(C)C)c2-3)C(C)C1 [Example 23, 2^4-((S)-4-acryloyl-2-methylpiperazin-1-yl)-2^6,3^6-difluoro-6-hydroxy-1^2-isopropyl-2^2-oxo-2^1,2^2-dihydro-4-oxa-2(1,7)-pyrido[2,3-d]pyrimidina-1(3,4)-pyridina-3(1,2)-benzocycloheptane-7-yl L-valine ester]
18 | 18 |  |  | C=CC(=O)N1CCN(c2nc(=O)n3c4nc(c(F)cc24)-c2c(F)cccc2OCC(=O)C(OC(C)=O)c2ccnc(C(C)C)c2-3)[C@@H](C)C1 (stereo partly drawn) [Example 19, 2^4-((S)-4-acryloyl-2-methylpiperazin-1-yl)-2^6,3^6-difluoro-1^2-isopropyl-2^2,6-dioxo-2^1,2^2-dihydro-4-oxa-2(1,7)-pyrido[2,3-d]pyrimidina-1(3,4)-pyridina-3(1,2)-benzocycloheptane-7-yl acetate]
 |  | 261 | 148 | C=CC(=O)N1CCN(c2nc(=O)n3c4nc(c(F)cc24)-c2c(F)cccc2OCC(OCC)C(O)c2ccnc(C(C)C)c2-3)[C@@H](C)C1 (stereo partly drawn) [Example 46, (S)-2^4-((S)-4-acryloyl-2-methylpiperazin-1-yl)-6-ethoxy-2^6,3^6-difluoro-7-hydroxy-1^2-isopropyl-2^1,2^2-dihydro-4-oxa-2(1,7)-pyrido[2,3-d]pyrimidina-1(3,4)-pyridina-3(1,2)-benzocycloheptane-2^2-one]
 |  | 16 | 7 | C=CC(=O)N1C[C@H](C)N(c2nc(=O)n3c4nc(c(F)cc24)-c2c(ccc(Cl)c2F)OCC(O)C(OCC)c2ccnc(C(C)C)c2-3)C[C@H]1C (stereo partly drawn) [Example 70, 2^4-((2S,5R)-4-acryloyl-2,5-dimethylpiperazin-1-yl)-3^5-chloro-7-ethoxy-2^6,3^6-difluoro-6-hydroxy-1^2-isopropyl-2^1,2^2-dihydro-4-oxa-2(1,7)-pyrido[2,3-d]pyrimidina-1(3,4)-pyridina-3(1,2)-benzocycloheptane-2^2-one]
 |  | 523 |  | C=CC(=O)N1C[C@H](C)N(c2nc(=O)n3c4nc(c(F)cc24)-c2c(ccc(Cl)c2F)OCC(O)C(OCC)c2ccnc(C(C)C)c2-3)C[C@H]1C (stereo partly drawn) [Example 77, (S)-(S)-2^4-((2S,5R)-4-acryloyl-2,5-dimethylpiperazin-1-yl)-3^5-chloro-7-ethoxy-2^6,3^6-difluoro-6-hydroxy-1^2-isopropyl-2^1,2^2-dihydro-4-oxa-2(1,7)-pyrido[2,3-d]pyrimidina-1(3,4)-pyridina-3(1,2)-benzocycloheptane-2^2-one]
1 | 1 |  |  | C=CC(=O)N1C[C@H](C)N(c2nc(=O)n3c4nc(c(F)cc24)-c2c(ccc(Cl)c2F)OCC(O)C(O)c2ccnc(C(C)C)c2-3)C[C@H]1C (stereo partly drawn) [Example 65, (R)-2^4-((2S,5R)-4-acryloyl-2,5-dimethylpiperazin-1-yl)-3^5-chloro-2^6,3^6-difluoro-6,7-dihydroxy-1^2-isopropyl-2^1,2^2-dihydro-4-oxa-2(1,7)-pyrido[2,3-d]pyrimidina-1(3,4)-pyridina-3(1,2)-benz ocycloheptane-2^2-one]
 |  | 2 | 1 | C=CC(=O)N1C[C@H](C)N(c2nc(=O)n3c4nc(c(F)cc24)-c2c(F)cccc2OCC(O)C(O)c2ccnc(C(C)C)c2-3)C[C@H]1C (stereo partly drawn) [Example 2, (R)-2^4-((2S,5R)-4-acryloyl-2,5-dimethylpiperazin-1-yl)-2^6,3^6-difluoro-6,7-dihydroxy-1^2-isopropyl-2^1,2^2-dihydro-4-oxa-2(1,7)-pyrido[2,3-d]pyrimidina-1(3,4)-pyridina-3(1,2)-benzocycloheptane-2^2-one]
 |  | 8 | 7 | C=CC(=O)N1CCN(c2nc(=O)n3c4nc(c(F)cc24)-c2c(F)cccc2OCC(OC(C)C)C(O)c2ccnc(C(C)C)c2-3)[C@@H](C)C1 (stereo partly drawn) [Example 55, (R)-2^4-((S)-4-acryloyl-2-methylpiperazin-1-yl)-6-isopropoxy-2^6,3^6-difluoro-7-hydroxy-1^2-isopropyl-2^1,2^2-dihydro-4-oxa-2(1,7)-pyrido[2,3-d]pyrimidina-1(3,4)-pyridina-3(1,2)-benzocycloheptane-2^2-one]
 |  | 11 | 4 | C=CC(=O)N1C[C@H](C)N(c2nc(=O)n3c4nc(c(F)cc24)-c2c(F)cccc2OCC(O)C(OCC)c2ccnc(C(C)C)c2-3)C[C@H]1C (stereo partly drawn) [Example 35, 2^4-((2S,5R)-4-acryloyl-2,5-dimethylpiperazin-1-yl)-7-ethoxy-2^6,3^6-difluoro-6-hydroxy-1^2-isopropyl-2^1,2^2-dihydro-4-oxa-2(1,7)-pyrido[2,3-d]pyrimidina-1(3,4)-pyridina-3(1,2)-benzocycloheptane-2^2-one]
 |  | 1320 | 859 | C=CC(=O)N1CCN(c2nc(=O)n3c4nc(c(F)cc24)-c2c(ccc(Cl)c2F)OCC(O)C(O)c2ccnc(C(C)C)c2-3)[C@@H](C)C1 (stereo partly drawn) [Example 67, (S)-2^4-((S)-4-acryloyl-2-methylpiperazin-1-yl)-3^5-chloro-2^6,3^6-difluoro-6,7-dihydroxy-1^2-isopropyl-2^1,2^2-dihydro-4-oxa-2(1,7)-pyrido[2,3-d]pyrimidina-1(3,4)-pyridina-3(1,2)-benzocycloheptane-2^2-one]
26 | 21 |  |  | C=CC(=O)N1CCN(c2nc(=O)n3c4nc(c(F)cc24)-c2c(F)cccc2OCC(O)C(OC(=O)OC(C)(C)C)c2ccnc(C(C)C)c2-3)[C@@H](C)C1 (stereo partly drawn) [Example 11, 2^4-((S)-4-acryloyl-2-methylpiperazin-1-yl)-2^6,3^6-difluoro-6-hydroxy-1^2-isopropyl-2^2-oxo-2^1,2^2-dihydro-4-oxa-2(1,7)-pyrido[2,3-d]pyrimidina-1(3,4)-pyridina-3(1,2)-benzocycloheptane-7-yl tert-butylcarbonate]
45 | 38 |  |  | C=CC(=O)N1CCN(c2nc(=O)n3c4nc(c(F)cc24)-c2c(F)cccc2OCC(OCC)C(OCC)c2ccnc(C(C)C)c2-3)[C@@H](C)C1 (stereo partly drawn) [Example 60, 2^4-((S)-4-acryloyl-2-methylpiperazin-1-yl)-6,7-diethoxy-2^6,3^6-difluoro-1^2-isopropyl-2^1,2^2-dihydro-4-oxa-2(1,7)-pyrido[2,3-d]pyrimidina-1(3,4)-pyridina-3(1,2)-benzocycloheptane-2^2-one]
 |  | 668 |  | C=CC(=O)N1CCN(c2nc(=O)n3c4nc(c(F)cc24)-c2c(ccc(Cl)c2F)OCC(O)C(OCC)c2ccnc(C(C)C)c2-3)[C@@H](C)C1 (stereo partly drawn) [Example 73, (S)-2^4-((S)-4-acryloyl-2-methylpiperazin-1-yl)-3^5-chloro-7-ethoxy-2^6,3^6-difluoro-6-hydroxy-1^2-isopropyl-2^1,2^2-dihydro-4-oxa-2(1,7)-pyrido[2,3-d]pyrimidina-1(3,4)-pyridina-3(1,2)-benzocycloheptane-2^2-one]
